# Laboratory results reported in publication PMC4658394 (ChemMedChem, 2015).
# How the values were obtained:
# MMP-12 = MMP-12 (Homo sapiens, UniProt P39900); assay: MMP-12 fluorogenic substrate assay with competing metalloprotein MT; conditions: MMP-12 0.68 nM
# MMP-2 = target: T1, MMP-2 (Homo sapiens, UniProt P08253); assay: MMP-2 fluorogenic substrate assay with competing metalloproteins; type: biochemical; conditions: MMP-2 2.7 nM
# T1 sequence (P08253 110-660): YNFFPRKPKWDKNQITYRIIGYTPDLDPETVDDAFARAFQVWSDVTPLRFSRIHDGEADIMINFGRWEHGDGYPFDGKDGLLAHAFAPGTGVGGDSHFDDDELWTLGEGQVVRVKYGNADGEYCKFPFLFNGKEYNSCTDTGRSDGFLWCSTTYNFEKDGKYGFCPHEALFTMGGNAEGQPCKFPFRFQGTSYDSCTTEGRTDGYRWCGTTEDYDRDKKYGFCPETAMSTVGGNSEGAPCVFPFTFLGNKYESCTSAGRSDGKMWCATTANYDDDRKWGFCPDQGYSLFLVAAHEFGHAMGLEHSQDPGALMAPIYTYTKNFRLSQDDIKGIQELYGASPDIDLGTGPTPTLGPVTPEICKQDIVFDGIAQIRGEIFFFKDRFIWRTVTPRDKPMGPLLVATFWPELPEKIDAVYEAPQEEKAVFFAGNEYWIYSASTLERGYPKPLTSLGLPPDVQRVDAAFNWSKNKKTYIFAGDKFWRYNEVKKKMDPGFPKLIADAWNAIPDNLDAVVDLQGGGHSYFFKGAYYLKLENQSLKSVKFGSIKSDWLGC
# HDAC-6 = target: T2, HDAC-6 (Homo sapiens, UniProt Q9UBN7); assay: HDAC-6 fluorogenic assay with competing metalloprotein MT; type: biochemical; conditions: 22 nM SAHA, HDAC-6 0.16 μM, various concentrations of MT
# T2 sequence (Q9UBN7 1-1215): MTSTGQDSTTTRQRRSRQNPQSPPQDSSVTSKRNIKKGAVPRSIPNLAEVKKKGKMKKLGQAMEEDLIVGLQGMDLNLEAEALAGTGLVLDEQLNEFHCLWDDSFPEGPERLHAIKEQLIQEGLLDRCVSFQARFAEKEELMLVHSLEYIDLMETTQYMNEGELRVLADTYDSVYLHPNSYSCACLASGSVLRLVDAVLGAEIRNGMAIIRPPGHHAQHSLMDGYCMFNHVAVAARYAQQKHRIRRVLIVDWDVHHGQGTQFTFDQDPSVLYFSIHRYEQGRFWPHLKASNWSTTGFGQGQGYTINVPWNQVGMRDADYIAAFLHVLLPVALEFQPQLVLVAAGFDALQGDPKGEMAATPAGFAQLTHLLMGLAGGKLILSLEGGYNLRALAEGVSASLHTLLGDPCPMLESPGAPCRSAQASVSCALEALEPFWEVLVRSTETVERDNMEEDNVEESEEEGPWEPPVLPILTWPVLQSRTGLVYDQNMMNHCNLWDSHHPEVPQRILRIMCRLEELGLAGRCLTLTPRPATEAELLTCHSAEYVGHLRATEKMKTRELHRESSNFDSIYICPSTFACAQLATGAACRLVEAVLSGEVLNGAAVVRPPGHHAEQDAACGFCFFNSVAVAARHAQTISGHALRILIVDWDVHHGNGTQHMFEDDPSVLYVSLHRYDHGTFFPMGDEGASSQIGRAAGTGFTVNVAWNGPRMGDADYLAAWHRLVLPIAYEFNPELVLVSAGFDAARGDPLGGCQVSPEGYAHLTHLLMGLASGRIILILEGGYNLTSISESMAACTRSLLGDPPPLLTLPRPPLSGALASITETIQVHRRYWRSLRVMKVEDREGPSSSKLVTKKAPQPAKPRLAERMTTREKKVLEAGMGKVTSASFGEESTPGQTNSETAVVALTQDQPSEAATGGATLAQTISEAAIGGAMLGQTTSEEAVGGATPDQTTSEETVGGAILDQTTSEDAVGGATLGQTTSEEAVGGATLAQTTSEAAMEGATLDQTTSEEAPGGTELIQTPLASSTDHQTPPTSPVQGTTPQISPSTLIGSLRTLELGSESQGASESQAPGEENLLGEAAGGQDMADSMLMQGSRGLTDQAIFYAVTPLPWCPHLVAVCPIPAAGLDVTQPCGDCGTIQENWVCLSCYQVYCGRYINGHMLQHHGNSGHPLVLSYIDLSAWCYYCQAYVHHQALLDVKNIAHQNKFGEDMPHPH
# HDAC-1 = HDAC-1 (Homo sapiens, UniProt Q13547); assay: HDAC-1 fluorogenic assay with competing metalloprotein MT; type: biochemical; conditions: 53 nM SAHA, HDAC-1 0.25 μM, various concentrations of MT
# HDAC-1, sequence (Q13547 whole entry): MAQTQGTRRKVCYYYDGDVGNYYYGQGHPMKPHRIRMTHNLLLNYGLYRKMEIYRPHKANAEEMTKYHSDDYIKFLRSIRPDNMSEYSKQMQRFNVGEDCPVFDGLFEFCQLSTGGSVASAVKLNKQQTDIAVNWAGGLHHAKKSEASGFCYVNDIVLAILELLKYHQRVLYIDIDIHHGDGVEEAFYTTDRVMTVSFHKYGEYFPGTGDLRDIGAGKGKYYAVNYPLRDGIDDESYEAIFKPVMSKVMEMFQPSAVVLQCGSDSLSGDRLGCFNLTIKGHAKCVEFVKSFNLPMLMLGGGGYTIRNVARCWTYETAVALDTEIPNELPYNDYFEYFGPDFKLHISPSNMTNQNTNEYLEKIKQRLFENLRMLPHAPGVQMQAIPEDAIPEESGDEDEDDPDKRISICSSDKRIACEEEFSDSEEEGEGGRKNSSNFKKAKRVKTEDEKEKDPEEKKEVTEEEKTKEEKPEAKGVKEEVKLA
# MMP-12, sequence (P39900 106-470): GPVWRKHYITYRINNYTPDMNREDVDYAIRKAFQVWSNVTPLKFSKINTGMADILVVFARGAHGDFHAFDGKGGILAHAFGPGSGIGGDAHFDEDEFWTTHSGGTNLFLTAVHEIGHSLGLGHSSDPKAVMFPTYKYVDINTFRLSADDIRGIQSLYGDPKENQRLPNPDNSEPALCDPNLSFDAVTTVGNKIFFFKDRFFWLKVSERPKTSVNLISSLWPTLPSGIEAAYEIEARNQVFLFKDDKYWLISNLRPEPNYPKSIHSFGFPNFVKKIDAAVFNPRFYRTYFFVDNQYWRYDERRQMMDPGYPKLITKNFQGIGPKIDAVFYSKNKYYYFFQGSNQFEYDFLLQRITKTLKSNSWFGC
compound,measurement,setting,value
"O=C(NCc1ccc(-c2ccccc2)cc1)c1cccc(=O)n1O [1,2-HOPO-2]",effect of large excess of MT on activity against MMP-12,"MMP-12; 30 nM inhibitor, up to 9 μM MT (300 equiv over inhibitor)",did not perturb the activity
same,IC50,MMP-12; read-out: IC50 against MMP-12,30 nM
COc1ccc(S(=O)(=O)N(Cc2cccnc2)[C@@H](C(=O)NO)C(C)C)cc1 [CGS],MMP-2 inhibition in the presence of combinations of competing proteins,"MMP-2; CGS 3 nM, MT, Mb, Tf, hCAII combinations 400 nM each",no drop in inhibition
same,specificity for MMP-2 in the presence of excess MT,"MMP-2; CGS 3 nM or NSA 30 nM, MT up to 50 equiv over MPi",maintain their specificity
same,"effect of Mb, Tf or hCAII as competing protein on MMP-2 inhibition","MMP-2; NSA 30 nM or CGS 3 nM, up to 166 equiv over CGS, up to 50 equiv over NSA",not titrating the MPi away from the MMP-2 target
"O=C(CCCCCCC(=O)Nc1ccccc1)NO [SAHA, suberolylanilide hydroxamic acid]",change in SAHA activity against HDAC-6 with increasing MT,HDAC-6,no substantial decrease
same,change in SAHA activity against HDAC-1 with increasing MT,HDAC-1,no substantial decrease
